In ChEMBL document CHEMBL1148572, “1-((S)-2-aminopropyl)-1H-indazol-6-ol: a potent peripherally acting 5-HT2 receptor agonist with ocular hypotensive activity” (J Med Chem, 2006):

How the values were obtained:
[1] = target: T1, monoamine oxidase B (MAO-B) (Rattus norvegicus, UniProt P19643); assay: Inhibition of monoamine oxidase B in rat brain at 100 nM; assay type: tissue-based
T1 sequence (P19643 whole entry): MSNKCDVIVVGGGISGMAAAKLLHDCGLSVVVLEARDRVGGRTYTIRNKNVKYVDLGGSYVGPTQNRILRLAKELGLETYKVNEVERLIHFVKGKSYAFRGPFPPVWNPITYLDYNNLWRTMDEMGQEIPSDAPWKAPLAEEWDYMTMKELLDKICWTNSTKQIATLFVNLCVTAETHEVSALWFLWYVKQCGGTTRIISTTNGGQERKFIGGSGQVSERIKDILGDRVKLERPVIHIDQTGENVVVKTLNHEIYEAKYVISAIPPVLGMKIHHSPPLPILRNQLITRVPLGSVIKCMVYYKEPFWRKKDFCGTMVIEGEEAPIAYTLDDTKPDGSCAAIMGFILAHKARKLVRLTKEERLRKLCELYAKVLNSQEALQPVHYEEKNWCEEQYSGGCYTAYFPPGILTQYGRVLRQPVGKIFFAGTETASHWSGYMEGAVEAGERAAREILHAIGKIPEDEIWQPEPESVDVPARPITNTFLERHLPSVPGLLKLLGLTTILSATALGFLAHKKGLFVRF

[2] = target: Sigma non-opioid intracellular receptor 1 (Homo sapiens) (UniProt Q99720); assay: Inhibition of non selective binding to sigma receptor at 100 nM
Sequence of Sigma non-opioid intracellular receptor 1 (Homo sapiens) (Q99720 whole entry): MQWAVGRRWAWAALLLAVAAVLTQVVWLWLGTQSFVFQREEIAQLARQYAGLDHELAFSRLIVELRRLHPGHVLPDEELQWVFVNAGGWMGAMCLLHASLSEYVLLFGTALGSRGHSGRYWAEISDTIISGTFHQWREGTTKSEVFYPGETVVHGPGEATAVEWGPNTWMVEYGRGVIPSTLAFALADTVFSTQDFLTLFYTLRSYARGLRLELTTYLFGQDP

[3] = Inhibitory activity at calcium activated potassium channel 6 at 10 uM
[4] = target: Sodium-dependent noradrenaline transporter (Homo sapiens, UniProt P23975); assay: Inhibitory activity against NET
Sequence of Sodium-dependent noradrenaline transporter (P23975 whole entry): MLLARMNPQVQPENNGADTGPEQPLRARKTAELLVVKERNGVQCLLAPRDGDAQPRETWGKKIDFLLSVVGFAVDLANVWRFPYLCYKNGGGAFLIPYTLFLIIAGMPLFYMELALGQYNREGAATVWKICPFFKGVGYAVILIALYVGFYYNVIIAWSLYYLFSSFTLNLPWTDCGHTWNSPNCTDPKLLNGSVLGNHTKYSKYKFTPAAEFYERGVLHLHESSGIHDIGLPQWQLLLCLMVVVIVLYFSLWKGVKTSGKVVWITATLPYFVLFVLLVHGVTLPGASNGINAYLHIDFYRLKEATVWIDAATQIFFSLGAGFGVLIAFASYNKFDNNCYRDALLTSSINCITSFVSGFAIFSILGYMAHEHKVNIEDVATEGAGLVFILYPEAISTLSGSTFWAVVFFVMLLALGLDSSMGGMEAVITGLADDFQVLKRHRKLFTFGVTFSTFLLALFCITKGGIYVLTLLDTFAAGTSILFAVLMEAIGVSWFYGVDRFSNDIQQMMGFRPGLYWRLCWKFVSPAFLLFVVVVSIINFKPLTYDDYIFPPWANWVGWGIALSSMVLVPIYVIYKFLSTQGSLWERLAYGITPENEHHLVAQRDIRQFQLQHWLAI

[5] = target: Voltage-dependent N-type calcium channel subunit alpha-1B (Homo sapiens) (UniProt Q00975); assay: Inhibitory activity at Calcium channel N type at 10 uM
Sequence of Voltage-dependent N-type calcium channel subunit alpha-1B (Homo sapiens) (Q00975 whole entry, looked up): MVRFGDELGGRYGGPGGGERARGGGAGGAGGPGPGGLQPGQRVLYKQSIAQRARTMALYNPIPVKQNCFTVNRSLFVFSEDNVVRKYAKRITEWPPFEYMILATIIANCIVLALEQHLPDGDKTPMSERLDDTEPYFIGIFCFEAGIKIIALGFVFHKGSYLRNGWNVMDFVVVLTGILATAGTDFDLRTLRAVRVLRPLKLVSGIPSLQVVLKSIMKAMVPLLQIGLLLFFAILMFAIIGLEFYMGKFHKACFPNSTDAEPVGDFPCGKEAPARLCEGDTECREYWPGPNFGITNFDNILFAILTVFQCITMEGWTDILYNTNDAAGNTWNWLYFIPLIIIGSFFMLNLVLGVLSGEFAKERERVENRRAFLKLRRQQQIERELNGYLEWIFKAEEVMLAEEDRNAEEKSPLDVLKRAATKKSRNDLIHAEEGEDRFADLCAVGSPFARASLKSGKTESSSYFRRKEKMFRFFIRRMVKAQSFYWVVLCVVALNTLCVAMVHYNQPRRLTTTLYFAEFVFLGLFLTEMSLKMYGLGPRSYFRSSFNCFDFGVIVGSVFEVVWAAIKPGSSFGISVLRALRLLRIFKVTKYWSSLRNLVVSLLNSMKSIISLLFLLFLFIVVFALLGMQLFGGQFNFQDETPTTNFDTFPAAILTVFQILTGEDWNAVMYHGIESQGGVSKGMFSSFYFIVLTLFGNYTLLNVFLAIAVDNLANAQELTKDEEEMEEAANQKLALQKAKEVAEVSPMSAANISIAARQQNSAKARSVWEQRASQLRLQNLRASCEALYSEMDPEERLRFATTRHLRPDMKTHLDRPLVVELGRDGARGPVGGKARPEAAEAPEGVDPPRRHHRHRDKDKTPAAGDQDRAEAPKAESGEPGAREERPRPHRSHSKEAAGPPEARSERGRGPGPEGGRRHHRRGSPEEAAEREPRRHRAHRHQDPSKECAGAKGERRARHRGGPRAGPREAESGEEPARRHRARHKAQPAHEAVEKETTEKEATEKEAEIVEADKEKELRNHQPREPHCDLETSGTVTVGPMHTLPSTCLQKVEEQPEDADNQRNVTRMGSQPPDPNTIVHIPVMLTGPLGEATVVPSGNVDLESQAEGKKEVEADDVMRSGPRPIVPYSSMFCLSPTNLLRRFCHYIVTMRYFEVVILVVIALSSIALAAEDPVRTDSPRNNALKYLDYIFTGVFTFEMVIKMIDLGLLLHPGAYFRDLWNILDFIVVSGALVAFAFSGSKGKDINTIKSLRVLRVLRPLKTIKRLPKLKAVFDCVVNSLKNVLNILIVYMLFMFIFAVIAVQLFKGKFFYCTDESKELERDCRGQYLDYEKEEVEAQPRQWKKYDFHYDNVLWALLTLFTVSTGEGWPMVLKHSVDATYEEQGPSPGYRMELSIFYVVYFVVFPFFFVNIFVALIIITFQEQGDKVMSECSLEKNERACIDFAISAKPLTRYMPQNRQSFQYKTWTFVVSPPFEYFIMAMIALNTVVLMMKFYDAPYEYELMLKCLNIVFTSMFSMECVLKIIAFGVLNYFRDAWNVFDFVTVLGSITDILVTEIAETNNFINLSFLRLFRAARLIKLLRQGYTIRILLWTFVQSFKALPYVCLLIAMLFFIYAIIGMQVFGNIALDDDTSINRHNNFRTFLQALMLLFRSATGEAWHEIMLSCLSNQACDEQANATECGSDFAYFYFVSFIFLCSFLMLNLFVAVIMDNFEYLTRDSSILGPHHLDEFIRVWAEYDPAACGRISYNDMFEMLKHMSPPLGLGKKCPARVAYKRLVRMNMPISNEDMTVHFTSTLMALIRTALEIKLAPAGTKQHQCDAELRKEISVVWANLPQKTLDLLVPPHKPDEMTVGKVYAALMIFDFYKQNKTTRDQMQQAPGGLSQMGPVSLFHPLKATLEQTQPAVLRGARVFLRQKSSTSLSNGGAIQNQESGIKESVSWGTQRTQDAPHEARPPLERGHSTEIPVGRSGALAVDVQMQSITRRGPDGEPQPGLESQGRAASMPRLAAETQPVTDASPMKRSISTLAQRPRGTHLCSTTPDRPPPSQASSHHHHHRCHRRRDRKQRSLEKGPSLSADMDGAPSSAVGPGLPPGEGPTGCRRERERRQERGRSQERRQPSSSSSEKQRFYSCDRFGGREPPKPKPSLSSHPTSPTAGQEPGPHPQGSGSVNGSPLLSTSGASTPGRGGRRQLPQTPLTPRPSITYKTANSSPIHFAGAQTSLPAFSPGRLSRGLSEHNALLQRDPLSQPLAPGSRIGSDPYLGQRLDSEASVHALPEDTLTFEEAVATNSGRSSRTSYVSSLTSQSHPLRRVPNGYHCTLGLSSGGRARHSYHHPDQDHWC

[6] = target: Muscarinic acetylcholine receptor (Homo sapiens) (UniProt P20309+P08173+P11229+P08172+P08912); assay: Inhibition of non selective binding to muscarinic receptor at 10 uM; assay type: protein assay
[7] = target: Glutamate [NMDA] receptor (Homo sapiens) (UniProt Q05586+Q12879+Q13224+O15399+O60391+Q14957+Q8TCU5); assay: Inhibition of agonist site of NMDA receptor at 10 uM; assay type: functional
[8] = Inhibition of non selective binding to VIP at 1 nM
[9] = target: Protein kinase C, PKC; classical/novel (Homo sapiens) (UniProt O94806+P17252+P05129+Q05655+P05771+Q02156+P24723+Q15139+Q04759); assay: Inhibition of PDBu activated protein kinase C at 1 nM; assay type: protein assay
[10] = target: T2, Type-1 angiotensin II receptor (Homo sapiens) (UniProt P30556); assay: Inhibition of type 1 angiotensin 2 receptor at 100 nM
T2 sequence (whole entry): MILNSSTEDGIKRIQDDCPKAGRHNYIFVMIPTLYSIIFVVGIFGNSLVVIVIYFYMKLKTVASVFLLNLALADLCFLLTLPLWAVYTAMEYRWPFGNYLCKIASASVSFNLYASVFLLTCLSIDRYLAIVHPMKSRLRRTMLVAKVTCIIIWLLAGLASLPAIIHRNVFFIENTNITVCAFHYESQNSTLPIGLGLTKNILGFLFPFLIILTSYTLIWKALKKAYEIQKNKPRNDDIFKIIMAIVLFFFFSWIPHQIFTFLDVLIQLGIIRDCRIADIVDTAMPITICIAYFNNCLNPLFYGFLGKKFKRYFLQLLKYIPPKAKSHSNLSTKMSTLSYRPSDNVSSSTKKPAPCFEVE

[11] = target: T3, Dopamine receptor (Homo sapiens) (UniProt P14416+P35462+P21918+P21917+P21728); assay: Inhibition of non selective binding to dopamine receptor at 10 uM; assay type: protein assay
[12] = target: Glutamate receptor ionotropic AMPA (Homo sapiens) (UniProt P48058+P42263+P42262+P42261); assay: Inhibition of AMPA receptor at 100 nM; assay type: protein-complex assay
[13] = Distribution coefficient at pH 7.4; assay type: physicochemical; settings: octanol/water
[14] = target: Glutamate receptor ionotropic kainate (Homo sapiens) (UniProt P39086+Q16478+Q16099+Q13002+Q13003); assay: Inhibition of kainate receptor at 10 uM; assay type: protein-complex assay
[15] = target: GABA-A receptor; benzodiazepine site (Homo sapiens) (UniProt P14867+P18507+P48169+Q99928+P34903+Q8N1C3+P47869+P31644+Q16445); assay: Inhibition of central benzodiazepine site on GABAA receptor at 1 nM; assay type: protein-complex assay
[16] = target: T3, Dopamine receptor (Homo sapiens); assay: Inhibition of non selective binding to dopamine receptor at 1 nM; assay type: protein assay
[17] = target: Serotonin 3 (5-HT3) receptor; assay: Inhibitory activity against 5HT3 receptor; assay type: protein-complex assay, Homo sapiens
[18] = target: T4, 5-hydroxytryptamine receptor 1A (Homo sapiens) (UniProt P08908); assay: Inhibition of forskolin activated adenylate cyclase at 1 nM; assay type: functional
T4 sequence (whole entry): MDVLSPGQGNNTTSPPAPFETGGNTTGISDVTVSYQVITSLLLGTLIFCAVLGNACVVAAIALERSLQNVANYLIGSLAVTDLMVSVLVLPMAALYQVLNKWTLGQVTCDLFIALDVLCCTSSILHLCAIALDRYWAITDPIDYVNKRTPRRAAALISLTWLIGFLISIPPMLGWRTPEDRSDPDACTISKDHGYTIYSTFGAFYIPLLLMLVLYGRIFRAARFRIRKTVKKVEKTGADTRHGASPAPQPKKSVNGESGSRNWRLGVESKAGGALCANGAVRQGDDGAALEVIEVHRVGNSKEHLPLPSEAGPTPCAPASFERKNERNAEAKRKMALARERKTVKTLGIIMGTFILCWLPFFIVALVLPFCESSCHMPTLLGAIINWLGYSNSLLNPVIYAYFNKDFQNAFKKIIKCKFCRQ

[19] = Inhibition of alpha-bungarotoxin insensitive nicotinic receptor at 10 uM

C[C@H](N)Cn1ncc2ccc(O)cc21 gave an inhibition at 0.1 µM [1] of -20%, an inhibition [2] of 0.17% and an inhibition [3] of -8.15%. For the same compound, the Ki [4] was > 10 µM, the inhibition [5] was 15.4% and the inhibition [6] was 12.2%. The inhibition [7] was 9.07%, the inhibition [8] was 5.87% and the inhibition [9] was 12.6%. The inhibition [10] was 7.33%, the inhibition [11] was 51.2% and the inhibition [12] was 9.45%. It also gave a logD [13] of 0.693, an inhibition [14] of 6.62% and an inhibition [15] of 19.6%. The inhibition [16] was 10.7%, the Ki [17] was > 10 µM and the inhibition [18] was 2.48%. The inhibition [19] was 7.7%.
